Data set [1] is classed as in vitro ADME. An excerpt: (Both the 1- and the 2-admamantyl ureas have been tested and have about the same high activity as an inhibitor of sEH. Thus, isomers of adamantyl dodecyl urea are preferred inhibitors. It is further expected that N, N′-dodecyl-cyclohexyl urea (DCU), and other inhibitors of sEH, and particularly dodecanoic acid ester derivatives of urea, are suitable for use in the methods. Preferred inhibitors include: […]

The target in a further data set is T1, sEH (Homo sapiens, UniProt P34913).
T1 sequence (P34913 1-555): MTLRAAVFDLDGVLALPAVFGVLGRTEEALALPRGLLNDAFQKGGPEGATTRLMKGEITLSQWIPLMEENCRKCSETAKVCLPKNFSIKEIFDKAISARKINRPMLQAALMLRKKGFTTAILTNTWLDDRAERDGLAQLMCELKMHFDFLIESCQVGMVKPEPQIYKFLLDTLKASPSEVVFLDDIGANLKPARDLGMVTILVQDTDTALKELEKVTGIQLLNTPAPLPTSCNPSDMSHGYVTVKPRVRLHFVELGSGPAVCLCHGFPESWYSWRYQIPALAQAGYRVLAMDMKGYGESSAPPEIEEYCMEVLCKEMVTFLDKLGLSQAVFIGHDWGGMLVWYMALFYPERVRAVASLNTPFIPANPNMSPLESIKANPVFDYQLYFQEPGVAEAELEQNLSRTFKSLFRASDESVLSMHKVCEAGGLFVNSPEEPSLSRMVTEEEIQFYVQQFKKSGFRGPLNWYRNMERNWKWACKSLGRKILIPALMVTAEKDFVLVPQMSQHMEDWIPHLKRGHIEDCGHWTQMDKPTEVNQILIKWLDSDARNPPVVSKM
The experiment in a line: Testing as sEH inhibitors (method not described). The format is biochemical. From the text: (Both the 1- and the 2-admamantyl ureas have been tested and have about the same high activity as an inhibitor of sEH. Thus, isomers of adamantyl dodecyl urea are preferred inhibitors. It is further expected that N, N′-dodecyl-cyclohexyl urea (DCU), and other inhibitors of sEH, and particularly dodecanoic acid ester derivatives of urea, are suitable for use in the methods. Preferred inhibitors include:
U.S. Pat. No. 5,955,496 (the '496 patent) also sets forth a number of sEH inhibitors which can be used in the methods. One category of these inhibitors comprises inhibitors that mimic the substrate for the enzyme. The lipid alkoxides (e.g., the 9-methoxide of stearic acid) are an exemplar of this group of inhibitors.

This is an account of results in patent publication US11690837B2, “Methods of improving cell-based therapy” (THE REGENTS OF THE UNIVERSITY OF CALIFORNIA, priority 2014, dated 2023).

Consider `CCCCCCCCCCCCNC(=O)NC12CC3CC(CC(C3)C1)C2` [ADU, N-Adamantyl-N′-dodecyl urea], for which the metabolic stability entry in data set [1] is on record as “metabolically stable”. For the same compound, the “activity as an inhibitor of sEH” value at sEH is on record as “particularly high activity”.
